Source: article PMC7112612 (The Journal of Infection, 2013)
≈ marks a conversion by molar mass, not a printed value. Where “and” joins values, the source holds several entries; their conditions need not be identical. Identical values can stand only once. Entries after “also recorded” stand apart in the source; their conditions may differ. Counter-ions that a name gives are not always drawn. Like-named read-outs stand apart in the source and are kept apart here.

B1: Betaferon (protein, UniProt P01574 22-187, looked up, variant C17S)
Interferon beta: MSYNLLGFLQRSSNFQSQKLLWQLNGRLEYCLKDRMNFDIPEEIKQLQQFQKEDAALTIYEMLQNIFAIFRQDSSSTGWNETIVENLLANVYHQINHLKTVLEEKLEKEDFTRGKLMSSLHLKRYYGRILHYLKAKEYSHCAWTIVRVEILRNFYFINRLTGYLRN
modifications: lacks N-terminal Met1
B2: Imukin (protein, UniProt P01579 24-161, looked up)
Interferon gamma: QDPYVKEAENLKKYFNAGHSDVADNGTLFLGILKNWKEESDRKIMQSQIVSFYFKLFKNFKDDQSIQKSVETIKEDMNVKFFNSNKKKRDDFEKLTNYSVTDLNVQRKAIHELIQVMAELSPAAKTGKRKRSQMLFRG

Assays:
[1] = test system: influenza A/WSN/1933 (H1N1) virus; assay: microbe, parasite or virus in culture; type: cell-based; conditions: for EC50: Influenza A virus, H1N1|WSN, MDCK
[2] = test system: MDCK cells; conditions: dog
[3] = test system: MERS-CoV; type: cell-based
[4] = in vivo, cited from earlier work
[5] = test system: MERS-CoV; assay: microbe, parasite or virus in culture; type: cell-based
[6] = test system: SARS-CoV; conditions: mouse, in vivo; cited from earlier work
[7] = in vitro; conditions: African green monkey
[8] = test system: MERS-CoV; type: cell-based; remark: listed apart in the source
[9] = test system: uninfected MDCK cells; conditions: cited from earlier work
[10] = test system: Vero cells
[11] = Middle East respiratory syndrome-related coronavirus, Vero

| Molecule | Result of chemical library screening [1] | EC50 [1] | TC50 [2] | anti-MERS-CoV activity at the tested concentrations (in words) [3] | Selectivity index [1] | Serum concentration ([4]; po) | other results |
| --- | --- | --- | --- | --- | --- | --- | --- |
| CC[C@H]1CN2CCc3cc(OC)c(OC)cc3[C@@H]2C[C@@H]1C[C@H]1NCCc2cc(OC)c(OC)cc21 [Emetine] | primary hits with protective results | 14.7 µM | 17.00 µM |  |  |  |  |
| Cc1c(O)cccc1C(=O)N[C@@H](CSc1ccccc1)[C@H](O)CN1C[C@H]2CCCC[C@H]2C[C@H]1C(=O)NC(C)(C)C [nelfinavir mesylate hydrate] |  |  |  | suboptimal EC50 |  |  |  |
| O=C(O)c1ccccc1Nc1cccc(C(F)(F)F)c1 [Flufenamic acid] | primary hits with protective results | 6.3 µM | 79.16 µM |  | 12.60 | 6–20 [200 mg] μg/ml |  |
| C[C@]12CC[C@@H]3c4ccc(O)cc4CC[C@H]3[C@@H]1CC[C@@H]2O [Estradiol] | primary hits with protective results | 20 µM | 75.00 µM |  | 3.00 |  |  |
| COc1c(C)c2c(c(O)c1C/C=C(\C)CCC(=O)OCCN1CCOCC1)C(=O)OC2 [Mycophenolate mofetil] |  |  |  |  |  |  | average plasma elimination half-life ([4]; iv, 1500 mg): 16.6 h; average plasma elimination half-life ([4]; po, 1000 mg): 17.9 h |
| Cc1ccc(Cl)c(Nc2ccccc2C(=O)O)c1Cl [Meclofenamate sodium] | primary hits with protective results | 45 µM | 100.00 µM |  | 2.00 | 4.8 [100 mg tds] μg/ml |  |
| Cc1cccc(Nc2ccccc2C(=O)O)c1C [Mefenamic acid] | primary hits with protective results | 50 µM | 200.00 µM |  | 4.00 | 10 [1 g] μg/ml |  |
| COc1c(C)c2c(c(O)c1C/C=C(\C)CCC(=O)O)C(=O)OC2 [Mycophenolic acid] | primary hits with protective results |  | 170.00 µM | showed anti-MERS-CoV activity |  |  | EC99 [5]: 4.86 ± 0.57 µg/mL; Selectivity index [5]: >195.12; reduction in viral load [5]: > 2 log; EC50 [5, 11]: 0.17 ± 0.03 µg/mL (≈ 0.531 µM); EC90 [5, 11]: 2.61 ± 0.34 µg/mL (≈ 8.15 µM); reduction in viral load ([5]; at 16 μg/ml): ~4 log; efficacy against SARS-CoV in an animal model (in words) [6]: ineffective; concentration at which CPE was completely absent [3]: ≥ 0.063 µg/mL; CC50 [7]: > 32 µg/mL; concentration achieving 100% plaque reduction [8]: 6.4 µg/mL |
| CCc1nc(N)nc(N)c1-c1ccc(Cl)cc1 [Pyrimethamine] | primary hits with protective results | 3.1 µM | 5.40 µM |  | 1.80 | 0.55 [1500/75 mg of sulfadoxine/pyrimethamine] μg/ml |  |
| Sc1ncnc2nc[nH]c12 [Mercaptopurine] | primary hits with protective results | 26.5 µM | 100.00 µM |  | 4.00 | 0.09 [50 mg/m^2] μg/ml |  |
| Cc1cccc(C)c1OCC(=O)N[C@@H](Cc1ccccc1)[C@@H](O)C[C@H](Cc1ccccc1)NC(=O)[C@H](C(C)C)N1CCCNC1=O [lopinavir] |  |  |  | suboptimal EC50; also recorded: not found to be active |  |  |  |
| NC(=O)c1ncn([C@@H]2O[C@H](CO)[C@@H](O)[C@H]2O)n1 [Ribavirin] | primary hits with protective results | 20 µM | 168.00 µM | showed anti-MERS-CoV activity | 8.00 | 2.2 [4 weeks of 600 mg bd] μg/ml | EC99 [5]: 183.17 ± 11.97 µg/mL; Selectivity index [5]: >152.98; reduction in viral load [5]: > 2 log; EC50 [5, 11]: 9.99 ± 2.97 µg/mL (≈ 40.9 µM); EC90 [5, 11]: 107 ± 11.2 µg/mL (≈ 438 µM); peak concentration ([4]; iv): approximately 24 μg/ml; CC50 [7]: > 1600 µg/mL; concentration achieving 100% plaque reduction [8]: 400 µg/mL; concentration inhibiting replication of uninfected MDCK cells [9]: ≥ 10000 ng/mL |
| NC12CC3CC(CC(C3)C1)C2 [Amantadine] | not identified |  |  |  |  |  |  |
| Cc1c(Cl)cccc1Nc1ccccc1C(=O)O [Tolfenamic acid] | primary hits with protective results | 7.94 µM | 64.00 µM |  | 8.00 | 4.1 [300 mg] μg/ml |  |
| B1 |  |  |  | showed anti-MERS-CoV activity |  |  | CC50 [10]: 3125 IU/ml; EC50 [5]: 17.64 IU/ml and 17.64 ± 1.09 IU/ml; EC90 [5]: 93.31 ± 10.07 IU/ml; EC99 [5]: 135.70 ± 15.96 IU/ml; mean peak serum concentration [4]: 40 IU/ml; maximum percentage of plaque reduction [8]: 66.6%; plaque reduction [8]: 40–50% |
| B2 |  |  |  | suboptimal EC50 |  |  |  |
